Source: US7494821B2, “Fluorescein based sensors for tracking nitric oxide in live cells” (Massachusetts Institute of Technology, priority 2005, dated 2009)
Blank lines part the entries; values can stand above or below the compound they belong to.

Key:
[1] = Specificity for NO over other reactive nitrogen and oxygen species; conditions: 100 equivalents of O2−, ClO−, H2O2, HNO, NO2−, NO3−, ONOO−, 2 h, pH 7.0 buffer, 1 μM
Procedure: FIG. 6 illustrates the specificity of Cu(FL5) for NO over other reactive nitrogen and oxygen species. The fluorescence response of Cu(FL5) was determined after addition of 100 equivalents of O2^−, ClO^−, H2O2, HNO (Angeli's salt Na2N2O3), NO2^−, NO3^−, and ONOO^− for 2 h in buffered aqueous solution (50 mM PIPES, pH 7.0, 100 mM KCl). The excitation wavelength was 503 nm. All data (F) are normalized with respect to the emission of Cu(FL5) (F(Cu(FL5))). [Cu(FL5)]=1 μM. Error bars indicate s.d.
(§1) The fluorescence of a 1 μM FL5 solution was diminished by 18±3% upon introduction of an equimolar quantity of CuCl2 at 37° C. Addition of excess NO to a buffered aqueous Cu(FL5) solution led to an immediate 11.2±1.5-fold increase in fluorescence (FIG. 5). […] The lower detection limit for NO is 5 nM.

[2] = tested on: HeLa cells; assay: Control imaging in HeLa cells; type: cell-based
Procedure: We investigated the ability of Cu(FL5) to detect NO produced in SK-N-SH human neuroblastoma cells under physiological conditions, since constitutive NO synthase (“cNOS”) in this cell line can be activated by estrogen to produce NO. Estrogen administration leads to an increase in the cytosolic Ca(II) concentration that alters the structure of calmodulin, which in turn activates cNOS. The NO-dependent fluorescence response, monitored after simultaneous administration of 17β-estradiol (100 nM) and Cu(FL5) (1 μM) to the cells, was completed within 5 min with a 4.0±0.6-fold increase in fluorescence (FIGS. 5a and b). […] As another control, HeLa cells were co-treated with 17β-estradiol (100 nM) and Cu(FL5) (1 μM).
To investigate further the origin of fluorescence detected by Cu(FL5), iNOS was silenced in Raw 264.7 cells by short hairpin RNA (shRNA)-induced RNA interference (RNAi) (FIG. 6b).
Raw 264.7, SK-N-SH, and HeLa cells were purchased from the American Type Culture Collection (ATCC). […] The expression of iNOS in Raw 264.7 cells was analyzed by Western blot on the extracts of cells stimulated by LPS and INF-γ. The protein was silenced by short hairpin RNA-induced RNAi and the resulting cell lines were used in fluorescence imaging by Cu(FL5).

[3] = tested on: mixture of Raw 264.7 and SK-N-SH cells; assay: NO imaging in Raw 264.7 and SK-N-SH co-culture; type: cell-based; conditions: 17β-estradiol (100 nM) and Cu(FL5) (1 μM) for 10 min
Procedure: FIG. 9 illustrates NO detection in SK-N-SH and Raw 264.7 cells by Cu(FL5). Cells were treated with Cu(FL5) (1 μM) and 17β-estradiol (500 nM) for 10 min. The media were subsequently removed and the cells washed with PBS. Images were taken with a Nikon Eclipse TS100 microscope.
The fluorescence response was also monitored in a mixture of Raw 264.7 and SK-N-SH cells grown on the same plate and co-treated with 17β-estradiol (100 nM) and Cu(FL5) (1 μM) for 10 min.

[4] = tested on: SK-N-SH cells; assay: MTT cytotoxicity assay on SK-N-SH cells; type: cell-based, human
Procedure: To test the toxicity of Cu(FL5), a MTT [3-(4,5-dimethylthiazol-2-yl)-2,5-diphenyltetrazolium bromide] assay was performed on SK-N-SH cells after 5 days of incubation with Cu(FL5) (1 μM).
Thus, both Cu(FL5) and FL5−NO are not toxic under the conditions used here for bioimaging of NO.
(§2) Raw 264.7, SK-N-SH, and HeLa cells were purchased from the American Type Culture Collection (ATCC). All three cell lines were maintained in Dulbecco's modified Eagles' media (DMEM) (GibcoBRL) containing 10% (v/v) heat-inactivated fetal bovine serum (FBS) (HyClone), 1 mM sodium pyruvate (Sigma), 100 units/ml penicillin, 100 μg/ml streptomycin (Invitrogen), and 0.1 mM nonessential amino acid solution for minimal essential medium (Sigma). All cells were grown at 37° C. in a humidified atmosphere of 10% CO2. A nitrite assay was performed with Griess reagents (Promega) on Raw 264.7 cells grown in DMEM free of phenol red. Calcium sensor fluo-4 AM was purchased from Invitrogen. MTT [3-(4,5-dimethylthiazol-2-yl)-2,5-diphenyltetrazolium bromide] (Sigma-Aldrich) assay was described in Supplementary information. The expression of iNOS in Raw 264.7 cells was analyzed by Western blot on the extracts of cells stimulated by LPS and INF-γ. The protein was silenced by short hairpin RNA-induced RNAi and the resulting cell lines were used in fluorescence imaging by Cu(FL5).

[5] = tested on: Raw 264.7 cells; assay: MTT cytotoxicity assay on Raw 264.7 cells; type: cell-based, murine; conditions: Cu(FL5) 1 μM, 5 days
Procedure: as §2

[6] = tested on: iNOS; assay: iNOS expression in Raw 264.7 cells (Western blot); type: cell-based, murine; conditions: Raw 264.7 cells upon introduction of LPS and IFN-γ
Procedure: as §2

[7] = Cell membrane passage in live cell studies; type: cell-based
Text: In summary, we have synthesized a Cu(II)-based fluorescein compound Cu(FL5) for imaging NO based on redox chemistry. Reduction of Cu(FL5) by NO to Cu(I) with nitrosation of the FL5 ligand is accompanied by bright visible light emission. […] Studies of Cu(FL5) in pH 7.0 aqueous buffered solutions indicate that the NO response is direct, rapid, and specific.

[8] = Cu(II) binding of FL5 (UV-vis titration with CuCl2; fluorescence quenching); conditions: 1 μM FL5 solution, 37° C.
Procedure: Derivatized fluorescein molecules are excellent biosensors because they excite and emit in a region of the visible spectrum that is relatively free of interference. We prepared the fluorescein-based ligand FL5 (FIG. 4) by reacting 7′-chloro-4′-fluorescein-carboxaldehyde with 8-aminoquinaldine. We generated the Cu(II) fluorescein-based NO probe Cu(FL5) (FIG. 4) in situ reacting FL5 (prepared as described below) awith CuCl2 in a 1:1 ratio in buffered aqueous solution (50 mM PIPES, pH 7.0, 100 mM KCl). […] A Job's plot was constructed to evaluate the nature of the FL5:Cu(II) complex by following the UV-vis absorption spectral change at 512 nm in pH 7.0 buffered solution. A break at 0.5 indicated the formation of a 1:1 complex.
as §1

Structure (SMILES): Cc1ccc2cccc(NCc3c([O][Cu][Cl])ccc4c(-c5ccccc5C(=O)O)c5cc(Cl)c(=O)cc-5oc34)c2n1 [Cu(FL5)]
fluorescence response specificity for NO over other reactive species [1]: detects NO specifically
fluorescence in HeLa cells co-treated with 17β-estradiol ([2]; 17β-estradiol (100 nM), Cu(FL5) (1 μM)): absence of turn-on emission
turn-on fluorescence emission in HeLa cells treated with LPS and IFN-γ ([2]; LPS and IFN-γ prior to Cu(FL5) incubation): not observed
fluorescence response in co-culture [3]: fluorescence increase was observed exclusively in the SK-N-SH cells
viable cells (MTT), cell line not specified ([4]; 1 μM Cu(FL5), after 5 days): > 80%
survival of SK-N-SH cells (MTT) ([4]; 5 days of incubation, Cu(FL5) 1 μM): 80±9%
survival of Raw 264.7 cells (MTT) [5]: 90±3%
effect on expression of iNOS [6]: does not affect the expression of iNOS
passage through cell membranes [7]: readily passes through cell membranes

fluorescence diminished upon introduction of equimolar CuCl2 [8]: 18±3%
Structure (SMILES): Cc1ccc2cccc(NCc3c(O)ccc4c(-c5ccccc5C(=O)O)c5cc(Cl)c(=O)cc-5oc34)c2n1 [FL5, 2-{2-chloro-6-hydroxy-5-[(2-methyl-quinolin-8-ylamino)-methyl]-3-oxo-3H-xanthen-9-yl}-benzoic acid]
